14 compounds from patent US11180474B2 (BRISTOL-MYERS SQUIBB COMPANY, priority 2016, dated 2021) can be followed below.

Structures are written as SMILES. pIC50: −log10 of the molar value.

The target in one test is T1, human TLR8 (Homo sapiens, UniProt Q9NR97).
T1 construct: host or cells: HEK-Blue cells
T1 sequence (Q9NR97 27-1041): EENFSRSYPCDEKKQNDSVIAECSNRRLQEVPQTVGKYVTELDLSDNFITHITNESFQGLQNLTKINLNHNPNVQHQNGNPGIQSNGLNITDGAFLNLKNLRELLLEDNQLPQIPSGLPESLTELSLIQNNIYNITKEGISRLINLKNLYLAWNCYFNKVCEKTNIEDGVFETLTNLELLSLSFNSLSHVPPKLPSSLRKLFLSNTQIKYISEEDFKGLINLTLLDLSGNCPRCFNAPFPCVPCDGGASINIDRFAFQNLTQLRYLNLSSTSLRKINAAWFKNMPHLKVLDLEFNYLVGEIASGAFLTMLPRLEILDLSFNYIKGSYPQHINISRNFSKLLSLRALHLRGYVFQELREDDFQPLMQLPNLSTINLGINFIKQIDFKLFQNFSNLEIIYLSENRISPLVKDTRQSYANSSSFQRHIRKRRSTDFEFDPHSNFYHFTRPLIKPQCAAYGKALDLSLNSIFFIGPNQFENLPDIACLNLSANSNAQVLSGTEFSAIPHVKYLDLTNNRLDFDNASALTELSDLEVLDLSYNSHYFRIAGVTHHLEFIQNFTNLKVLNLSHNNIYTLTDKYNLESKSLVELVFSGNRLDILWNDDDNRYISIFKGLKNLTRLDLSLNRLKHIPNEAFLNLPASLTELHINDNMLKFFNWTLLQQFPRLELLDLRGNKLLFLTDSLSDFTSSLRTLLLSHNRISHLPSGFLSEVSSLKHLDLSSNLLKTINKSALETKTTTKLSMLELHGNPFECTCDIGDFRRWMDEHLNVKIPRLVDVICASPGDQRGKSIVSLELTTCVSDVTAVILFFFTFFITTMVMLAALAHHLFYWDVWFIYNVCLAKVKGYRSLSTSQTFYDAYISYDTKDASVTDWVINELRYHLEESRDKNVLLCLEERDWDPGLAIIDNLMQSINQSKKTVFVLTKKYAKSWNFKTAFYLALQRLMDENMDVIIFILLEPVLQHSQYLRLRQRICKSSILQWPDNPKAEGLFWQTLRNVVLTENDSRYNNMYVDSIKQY
The test is described as follows: TLR8 inhibition reporter assay (HEK-Blue cells, SEAP reporter, R848 stimulation). Particulars: HEK-Blue cells overexpressing human TLR8, R848 15.9 μM. Format: cell-based. An outline of the steps:
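HEK-Blue reporter cells (15,000/well TLR7, 20,000 TLR8) exposed to compound over 0.05 nM–50 μM, agonist-stimulated (R848 for TLR8, gardiquimod for TLR7), 22 h at 37 °C, 5% CO2. SEAP read with HEK-Blue Detection; % inhibition relative to agonist-plus-DMSO and known-inhibitor controls.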

The next test deals with TLR7. The test can be described thus: In vivo mouse TLR7 PD model (gardiquimod challenge, plasma IL-6). Particulars: oral. The method, then: In Vivo Mouse TLR7 and TLR9 PD Model:
Adult male C57BL/6 mice were used for the experiments. Mice (7 to 10 per group) were randomized into different treatment groups based on body weight. Mice from the respective treatment groups were administered orally with vehicle or test compound. Thirty min after the oral administration of vehicle or test compound, mice were challenged with intraperitoneal injection of gardiquimod for TLR7 PD model and CpG-ODN for TLR9 PD model. Ninety minutes after gardiquimod injection and 120 minutes after CpG-ODN injection, mice were bled under isoflurane anaesthesia and plasma IL-6 level was estimated by using commercially available ELISA kit (BD Biosciences). At the end of experiment, mean cytokine data was plotted and one way ANOVA with Dunnett's test was performed to calculate the significance of test compound treated group vs. vehicle control group. Percent inhibition of cytokine induction was calculated for test compound treated group vs vehicle control group.

On to `COc1ccc(-c2[nH]c3ccc(C4CCN(CC(=O)N(C)C)CC4)cc3c2C(C)C)cc1OC` [Example 312, 2-(4-(2-(3,4-dimethoxyphenyl)-3-isopropyl-11H-indol-5-yl)piperidin-1-yl)-N,N-dimethylacetamide], for which the pIC50 – broadly, the negative decadic logarithm of the IC50, by convention in mol/L – against human TLR8 is 7.55. For the same compound, the “% inhibition of IL6” value is reported as 34% with TLR7 (dose 0.001 mg/kg), 39% in the test with TLR7 (dose 0.01 mg/kg), 59% in the test on TLR7 (dose 0.1 mg/kg) and 82% with TLR7 (dose 1 mg/kg).

With `COc1ccc(-c2[nH]c3ccc(C4CCN(C(=O)CN5CCC[C@@H](C(=O)N6CCN(C(C)C)CC6)C5)CC4)cc3c2C(C)C)cc1OC` [Example 302, (R)-1-(4-(2-(3,4-dimethoxyphenyl)-3-isopropyl-1H-indol-5-yl)piperidin-1-yl)-2-(3-(4-isopropylpiperazine-1-carbonyl)piperidin-1-yl)ethan-1-one], the pIC50 against human TLR8 is 7.74. Still for that read-out and setting: the figure for `COc1ccc(-c2[nH]c3ccc(C4CCN(C(=O)CN5CCC(O)CC5)CC4)cc3c2C(C)C)cc1OC` [Example 238, 1-(4-(2-(3,4-dimethoxyphenyl)-3-isopropyl-1H-indol-5-yl)piperidin-1-yl)-2-(4-hydroxypiperidin-1-yl) ethan-1-one] is 8.30; for `COc1ccc(-c2[nH]c3ccc(C4CCN(C(=O)CN5CCC[C@@H](C(=O)N6C(C)CCC6C)C5)CC4)cc3c2C(C)C)cc1OC` (stereo partly drawn) [Example 311, 1-(4-(2-(3,4-dimethoxyphenyl)-3-isopropyl-1H-indol-5-yl)piperidin-1-yl)-2-((3R)-3-(2,5-dimethylpyrrolidine-1-carbonyl)piperidin-1-yl)ethan-1-one] it is 7.22; for `COc1ccc(-c2[nH]c3ccc(C4CCN(Cc5cnn(C)c5)CC4)cc3c2C(C)C)cc1OC` [Example 259, 2-(3,4-dimethoxyphenyl)-3-isopropyl-5-(1-((1-methyl-1H-pyrazol-4-yl)methyl)piperidin-4-yl)-1H-indole] it is 7.96. Still for that read-out and setting: the figure for `COc1ccc(-c2[nH]c3ccc(C4CCN(Cc5cnc(C)[nH]5)CC4)cc3c2C(C)C)cc1OC` [Example 266, 2-(3,4-dimethoxyphenyl)-3-isopropyl-5-(1-((2-methyl-1H-imidazol-5-yl)methyl)piperidin-4-yl)-1H-indole] is 7.70; for `COc1ccc(-c2[nH]c3ccc(C4CCN(C(=O)CN5CCC[C@H](C(=O)N6CCC(N(C)C)CC6)C5)CC4)cc3c2C(C)C)cc1OC` [Example 289, (S)-1-(4-(2-(3,4-dimethoxyphenyl)-3-isopropyl-1H-indol-5-yl)piperidin-1-yl)-2-(3-(4-(dimethylamino)piperidine-1-carbonyl)piperidin-1-yl)ethan-1-one] it is 7.85; for `COc1ccc(-c2[nH]c3ccc(C4CCN(C(=O)CN5CCC[C@@H](C(=O)NCC#N)C5)CC4)cc3c2C(C)C)cc1OC` [Example 308, (R)—N-(cyanomethyl)-1-(2-(4-(2-(3,4-dimethoxyphenyl)-3-isopropyl-1H-indol-5-yl)piperidin-1-yl)-2-oxoethyl)piperidine-3-carboxamide] it is 7.39. Regarding `CCN(CC)C(=O)C1CCCN(CC(=O)N2CCC(c3ccc4[nH]c(-c5ccc(OC)c(OC)c5)c(C(C)C)c4c3)CC2)C1` (stereo not drawn) [Example 247, 1-(2-(4-(2-(3,4-dimethoxyphenyl)-3-isopropyl-1H-indol-5-yl)piperidin-1-yl)-2-oxoethyl)-N,N-diethylpiperidine-3-carboxamide], the pIC50 at human TLR8 was 7.42. The same measure, in the same setting: the figure for `COc1ccc(-c2[nH]c3ccc(C4CCN(C(=O)CN5CCC[C@H](C(=O)N6CCCC(O)C6)C5)CC4)cc3c2C(C)C)cc1OC` (stereo partly drawn) [Example 292, 1-(4-(2-(3,4-dimethoxyphenyl)-3-isopropyl-1H-indol-5-yl)piperidin-1-yl)-2-((3S)-3-(3-hydroxypiperidine-1-carbonyl)piperidin-1-yl)ethan-1-one] is 7.66; for `COc1ccc(-c2[nH]c3ccc(C4CCN(C(=O)CN(C)CCO)CC4)cc3c2C(C)C)cc1OC` [Example 242, 1-(4-(2-(3,4-dimethoxyphenyl)-3-isopropyl-1H-indol-5-yl)piperidin-1-yl)-2-((2-hydroxyethyl)(methyl)amino)ethan-1-one] it is 7.85; for `COc1ccc(-c2[nH]c3ccc(C4CCN(C(=O)CNCC(N)=O)CC4)cc3c2C(C)C)cc1OC` [Example 228, 2-((2-(4-(2-(3,4-dimethoxyphenyl)-3-isopropyl-1H-indol-5-yl)piperidin-1-yl)-2-oxoethyl)amino)acetamide] it is 6.93. The same measure, in the same setting: the figure for `COc1ccc(-c2[nH]c3ccc(C4CCN(C5CCN(C6CC6)CC5)CC4)cc3c2C)cc1OC` [Example 23, 5-(1′-cyclopropyl-[1,4′-bipiperidin]-4-yl)-2-(3,4-dimethoxyphenyl)-3-methyl-1H-indole] is 6.82. The same measure, in the same setting: for `COc1ccc(-c2[nH]c3ccc(C4CCN(C(=O)CN5CCC(N6CCN(C)CC6)CC5)CC4)cc3c2C(C)C)cc1OC` [Example 241, 1-(4-(2-(3,4-dimethoxyphenyl)-3-isopropyl-1H-indol-5-yl)piperidin-1-yl)-2-(4-(4-methylpiperazin-1-yl)piperidin-1-yl)ethan-1-one] the value was 7.89.
